{
  "source": "ChEMBL document CHEMBL5465560",
  "about": "“Selectivity Literature for EUbOPEN Chemogenomic Library” (2024)",
  "key": {"[1]": {"target": "Tyrosine-protein kinase Fer (Homo sapiens) (UniProt P16591)", "sequence (P16591 whole entry, looked up)": "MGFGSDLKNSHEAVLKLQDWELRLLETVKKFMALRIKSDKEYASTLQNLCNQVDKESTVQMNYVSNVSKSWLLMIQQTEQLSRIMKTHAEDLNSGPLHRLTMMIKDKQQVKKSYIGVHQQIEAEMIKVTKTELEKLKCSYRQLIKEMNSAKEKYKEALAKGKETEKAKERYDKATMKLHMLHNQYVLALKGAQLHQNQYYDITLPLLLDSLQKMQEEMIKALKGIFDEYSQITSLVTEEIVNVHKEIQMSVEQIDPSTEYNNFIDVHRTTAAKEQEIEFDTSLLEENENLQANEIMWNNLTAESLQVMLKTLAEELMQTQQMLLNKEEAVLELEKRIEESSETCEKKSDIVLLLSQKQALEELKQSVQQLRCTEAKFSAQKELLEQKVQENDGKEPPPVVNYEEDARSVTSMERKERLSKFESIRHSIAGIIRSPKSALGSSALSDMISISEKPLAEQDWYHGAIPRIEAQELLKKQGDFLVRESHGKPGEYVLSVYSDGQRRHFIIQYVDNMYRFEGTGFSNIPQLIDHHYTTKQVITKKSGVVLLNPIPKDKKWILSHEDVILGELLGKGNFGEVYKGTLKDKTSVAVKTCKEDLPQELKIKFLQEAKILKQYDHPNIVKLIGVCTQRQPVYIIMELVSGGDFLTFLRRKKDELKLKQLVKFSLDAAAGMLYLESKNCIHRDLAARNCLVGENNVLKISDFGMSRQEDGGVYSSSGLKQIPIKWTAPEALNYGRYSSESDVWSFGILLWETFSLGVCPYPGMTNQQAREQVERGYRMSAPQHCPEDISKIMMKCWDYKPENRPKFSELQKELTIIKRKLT", "experiment": "Selectivity interaction (ActivX KiNativ screen (kinase selectivity in THP-1 cell lysates)) EUB0000639a FER", "type": "subcellular", "conditions": "lysate"}, "[2]": {"target": "Serine/threonine-protein kinase PRP4 homolog (Homo sapiens) (UniProt Q13523)", "experiment": "Selectivity interaction (ActivX KiNativ screen (kinase selectivity in THP-1 cell lysates)) EUB0000639a PRPF4", "type": "subcellular", "conditions": "lysate, at 1 µM"}, "[3]": {"target": "cAMP-dependent protein kinase catalytic subunit beta (Homo sapiens) (UniProt P22694)", "experiment": "Selectivity interaction (Ambit KINOMEscan and KiNATiv profiling in Jurkat cells) EUB0000090b PRKACB", "type": "cell-based", "conditions": "at 1 µM"}, "[4]": {"target": "Serine/threonine-protein kinase Nek6 (Homo sapiens) (UniProt Q9HC98)", "sequence (Q9HC98 whole entry)": "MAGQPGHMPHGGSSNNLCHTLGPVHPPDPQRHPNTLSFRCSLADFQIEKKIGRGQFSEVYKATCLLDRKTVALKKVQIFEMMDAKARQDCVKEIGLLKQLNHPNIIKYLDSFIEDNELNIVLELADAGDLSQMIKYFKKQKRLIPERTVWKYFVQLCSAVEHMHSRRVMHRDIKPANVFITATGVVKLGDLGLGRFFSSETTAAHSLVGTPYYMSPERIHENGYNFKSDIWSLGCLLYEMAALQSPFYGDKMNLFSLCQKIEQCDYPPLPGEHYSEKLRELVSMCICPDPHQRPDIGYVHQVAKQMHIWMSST", "experiment": "Selectivity interaction (KinomeScan (DiscoverX)) EUB0000618a NEK6", "conditions": "at 10 µM"}, "[5]": {"tested_on": "Tyrosine-protein kinase ABL1 (Homo sapiens), P00519 [F317I]", "conditions": "at 10 µM"}, "[6]": {"tested_on": "Epidermal growth factor receptor (Homo sapiens), P00533 [UNDEFINED MUTATION]", "sequence (P00533 whole entry, looked up, change not shown)": "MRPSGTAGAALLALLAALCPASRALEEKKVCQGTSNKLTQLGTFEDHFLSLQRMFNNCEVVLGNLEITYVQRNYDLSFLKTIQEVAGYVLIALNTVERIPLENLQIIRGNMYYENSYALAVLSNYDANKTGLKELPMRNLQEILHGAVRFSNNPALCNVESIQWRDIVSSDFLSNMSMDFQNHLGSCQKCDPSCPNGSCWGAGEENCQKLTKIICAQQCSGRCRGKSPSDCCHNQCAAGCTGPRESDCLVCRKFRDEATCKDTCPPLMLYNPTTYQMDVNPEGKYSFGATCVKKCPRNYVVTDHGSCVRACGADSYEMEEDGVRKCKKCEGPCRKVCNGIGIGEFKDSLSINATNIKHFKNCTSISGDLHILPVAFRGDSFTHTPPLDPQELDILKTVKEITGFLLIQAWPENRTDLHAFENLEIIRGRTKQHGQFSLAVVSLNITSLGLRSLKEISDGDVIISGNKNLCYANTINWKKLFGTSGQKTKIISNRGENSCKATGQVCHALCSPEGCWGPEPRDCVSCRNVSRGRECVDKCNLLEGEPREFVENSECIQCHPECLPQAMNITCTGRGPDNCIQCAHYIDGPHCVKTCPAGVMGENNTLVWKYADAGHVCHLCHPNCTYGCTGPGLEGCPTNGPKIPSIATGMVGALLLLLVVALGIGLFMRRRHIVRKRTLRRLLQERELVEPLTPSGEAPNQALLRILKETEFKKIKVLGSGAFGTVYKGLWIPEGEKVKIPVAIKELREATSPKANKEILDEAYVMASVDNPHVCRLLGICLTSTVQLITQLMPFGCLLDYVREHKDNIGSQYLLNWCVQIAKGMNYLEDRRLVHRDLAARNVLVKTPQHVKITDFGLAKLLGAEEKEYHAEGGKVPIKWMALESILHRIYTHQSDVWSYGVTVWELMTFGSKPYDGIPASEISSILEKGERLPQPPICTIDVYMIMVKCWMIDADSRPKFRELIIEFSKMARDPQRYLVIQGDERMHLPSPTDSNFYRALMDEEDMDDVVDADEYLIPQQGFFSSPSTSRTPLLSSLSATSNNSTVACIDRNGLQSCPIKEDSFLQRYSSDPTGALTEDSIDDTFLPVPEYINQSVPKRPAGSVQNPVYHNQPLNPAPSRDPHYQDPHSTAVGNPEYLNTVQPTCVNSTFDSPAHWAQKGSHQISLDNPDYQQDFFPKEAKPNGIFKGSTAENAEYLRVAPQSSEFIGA", "conditions": "at 10 µM"}, "[7]": {"target": "T1, Kinase suppressor of Ras 2 (Homo sapiens) (UniProt Q6VAB6)", "T1 sequence (whole entry)": "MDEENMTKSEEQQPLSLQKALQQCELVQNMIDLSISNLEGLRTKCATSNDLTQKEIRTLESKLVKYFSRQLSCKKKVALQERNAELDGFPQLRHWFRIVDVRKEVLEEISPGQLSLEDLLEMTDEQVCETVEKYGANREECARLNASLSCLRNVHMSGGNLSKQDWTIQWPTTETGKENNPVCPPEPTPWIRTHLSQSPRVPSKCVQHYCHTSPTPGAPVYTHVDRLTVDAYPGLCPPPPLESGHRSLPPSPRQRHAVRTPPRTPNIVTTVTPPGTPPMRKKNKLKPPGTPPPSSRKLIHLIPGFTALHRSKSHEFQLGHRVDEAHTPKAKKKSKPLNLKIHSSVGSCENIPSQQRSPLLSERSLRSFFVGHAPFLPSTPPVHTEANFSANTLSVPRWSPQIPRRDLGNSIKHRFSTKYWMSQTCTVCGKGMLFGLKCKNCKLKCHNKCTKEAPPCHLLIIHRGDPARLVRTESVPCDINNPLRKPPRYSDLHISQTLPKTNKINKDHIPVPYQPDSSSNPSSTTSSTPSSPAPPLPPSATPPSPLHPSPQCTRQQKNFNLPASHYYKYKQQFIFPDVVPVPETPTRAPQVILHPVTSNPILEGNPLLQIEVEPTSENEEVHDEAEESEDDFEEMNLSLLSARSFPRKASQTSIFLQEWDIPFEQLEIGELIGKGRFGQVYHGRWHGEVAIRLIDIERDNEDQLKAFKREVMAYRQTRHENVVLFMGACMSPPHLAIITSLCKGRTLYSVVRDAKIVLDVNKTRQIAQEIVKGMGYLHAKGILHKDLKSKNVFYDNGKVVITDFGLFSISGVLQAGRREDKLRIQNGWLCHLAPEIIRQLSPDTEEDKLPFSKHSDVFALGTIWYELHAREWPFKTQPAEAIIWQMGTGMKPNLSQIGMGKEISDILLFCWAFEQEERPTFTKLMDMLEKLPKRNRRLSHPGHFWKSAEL", "experiment": "Selectivity interaction (ActivX KiNativ screen (ex vivo kinase selectivity in human PBMCs)) EUB0001619a KSR2", "type": "cell-based", "conditions": "PBMC, at 1 µM"}, "[8]": {"target": "Serine/threonine-protein kinase WNK3 (Homo sapiens) (UniProt Q9BYP7)", "sequence (Q9BYP7 whole entry)": "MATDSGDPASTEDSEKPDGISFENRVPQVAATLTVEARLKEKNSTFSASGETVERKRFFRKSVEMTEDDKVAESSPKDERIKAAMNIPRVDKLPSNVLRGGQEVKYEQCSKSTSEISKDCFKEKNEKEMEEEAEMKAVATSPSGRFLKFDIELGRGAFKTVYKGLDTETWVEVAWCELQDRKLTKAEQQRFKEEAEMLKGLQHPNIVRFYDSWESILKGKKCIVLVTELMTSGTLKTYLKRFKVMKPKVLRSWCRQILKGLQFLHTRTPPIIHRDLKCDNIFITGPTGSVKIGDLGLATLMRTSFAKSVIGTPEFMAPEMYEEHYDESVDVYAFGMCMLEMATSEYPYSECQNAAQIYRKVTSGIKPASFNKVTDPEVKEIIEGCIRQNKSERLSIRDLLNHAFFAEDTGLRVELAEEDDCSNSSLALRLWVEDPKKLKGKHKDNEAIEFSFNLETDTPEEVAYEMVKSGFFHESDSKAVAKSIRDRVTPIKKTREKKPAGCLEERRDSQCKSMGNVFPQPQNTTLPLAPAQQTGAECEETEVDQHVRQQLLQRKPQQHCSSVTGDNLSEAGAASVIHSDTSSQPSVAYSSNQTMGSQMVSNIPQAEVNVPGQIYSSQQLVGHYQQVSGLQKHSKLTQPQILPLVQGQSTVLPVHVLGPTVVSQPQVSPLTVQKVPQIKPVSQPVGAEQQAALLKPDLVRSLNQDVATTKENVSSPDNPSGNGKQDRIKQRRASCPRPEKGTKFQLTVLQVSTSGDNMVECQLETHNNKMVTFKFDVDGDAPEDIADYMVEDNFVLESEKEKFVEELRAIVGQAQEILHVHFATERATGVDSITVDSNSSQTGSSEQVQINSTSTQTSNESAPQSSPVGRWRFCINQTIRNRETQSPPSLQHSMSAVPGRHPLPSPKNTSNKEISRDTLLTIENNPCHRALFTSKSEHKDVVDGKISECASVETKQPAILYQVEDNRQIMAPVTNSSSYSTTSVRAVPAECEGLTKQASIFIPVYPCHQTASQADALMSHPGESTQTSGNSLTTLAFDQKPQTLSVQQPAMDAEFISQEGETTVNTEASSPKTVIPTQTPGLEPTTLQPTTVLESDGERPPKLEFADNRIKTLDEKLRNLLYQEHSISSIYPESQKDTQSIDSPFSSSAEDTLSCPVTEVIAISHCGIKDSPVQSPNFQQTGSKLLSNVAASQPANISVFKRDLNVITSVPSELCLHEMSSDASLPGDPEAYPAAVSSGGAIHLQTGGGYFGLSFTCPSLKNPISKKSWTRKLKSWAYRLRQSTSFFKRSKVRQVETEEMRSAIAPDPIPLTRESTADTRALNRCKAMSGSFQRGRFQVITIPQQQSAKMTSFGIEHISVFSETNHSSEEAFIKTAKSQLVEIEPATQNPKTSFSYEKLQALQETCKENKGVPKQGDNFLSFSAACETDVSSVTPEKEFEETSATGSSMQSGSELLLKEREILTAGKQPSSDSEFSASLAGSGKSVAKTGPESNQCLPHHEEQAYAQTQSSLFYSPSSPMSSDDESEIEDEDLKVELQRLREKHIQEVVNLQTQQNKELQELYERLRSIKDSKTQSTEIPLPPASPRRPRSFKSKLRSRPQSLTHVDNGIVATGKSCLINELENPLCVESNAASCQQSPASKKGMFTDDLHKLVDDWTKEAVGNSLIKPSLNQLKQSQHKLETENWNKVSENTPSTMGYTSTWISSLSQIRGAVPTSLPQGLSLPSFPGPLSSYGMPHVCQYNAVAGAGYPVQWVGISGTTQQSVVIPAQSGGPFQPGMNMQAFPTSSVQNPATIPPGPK", "experiment": "Selectivity interaction (ActivX KiNativ screen (ex vivo kinase selectivity in human PBMCs)) EUB0001619a WNK3", "type": "cell-based", "conditions": "PBMC, at 1 µM"}, "[9]": {"target": "T2, Cyclin-G-associated kinase (Homo sapiens) (UniProt O14976)", "T2 sequence (whole entry)": "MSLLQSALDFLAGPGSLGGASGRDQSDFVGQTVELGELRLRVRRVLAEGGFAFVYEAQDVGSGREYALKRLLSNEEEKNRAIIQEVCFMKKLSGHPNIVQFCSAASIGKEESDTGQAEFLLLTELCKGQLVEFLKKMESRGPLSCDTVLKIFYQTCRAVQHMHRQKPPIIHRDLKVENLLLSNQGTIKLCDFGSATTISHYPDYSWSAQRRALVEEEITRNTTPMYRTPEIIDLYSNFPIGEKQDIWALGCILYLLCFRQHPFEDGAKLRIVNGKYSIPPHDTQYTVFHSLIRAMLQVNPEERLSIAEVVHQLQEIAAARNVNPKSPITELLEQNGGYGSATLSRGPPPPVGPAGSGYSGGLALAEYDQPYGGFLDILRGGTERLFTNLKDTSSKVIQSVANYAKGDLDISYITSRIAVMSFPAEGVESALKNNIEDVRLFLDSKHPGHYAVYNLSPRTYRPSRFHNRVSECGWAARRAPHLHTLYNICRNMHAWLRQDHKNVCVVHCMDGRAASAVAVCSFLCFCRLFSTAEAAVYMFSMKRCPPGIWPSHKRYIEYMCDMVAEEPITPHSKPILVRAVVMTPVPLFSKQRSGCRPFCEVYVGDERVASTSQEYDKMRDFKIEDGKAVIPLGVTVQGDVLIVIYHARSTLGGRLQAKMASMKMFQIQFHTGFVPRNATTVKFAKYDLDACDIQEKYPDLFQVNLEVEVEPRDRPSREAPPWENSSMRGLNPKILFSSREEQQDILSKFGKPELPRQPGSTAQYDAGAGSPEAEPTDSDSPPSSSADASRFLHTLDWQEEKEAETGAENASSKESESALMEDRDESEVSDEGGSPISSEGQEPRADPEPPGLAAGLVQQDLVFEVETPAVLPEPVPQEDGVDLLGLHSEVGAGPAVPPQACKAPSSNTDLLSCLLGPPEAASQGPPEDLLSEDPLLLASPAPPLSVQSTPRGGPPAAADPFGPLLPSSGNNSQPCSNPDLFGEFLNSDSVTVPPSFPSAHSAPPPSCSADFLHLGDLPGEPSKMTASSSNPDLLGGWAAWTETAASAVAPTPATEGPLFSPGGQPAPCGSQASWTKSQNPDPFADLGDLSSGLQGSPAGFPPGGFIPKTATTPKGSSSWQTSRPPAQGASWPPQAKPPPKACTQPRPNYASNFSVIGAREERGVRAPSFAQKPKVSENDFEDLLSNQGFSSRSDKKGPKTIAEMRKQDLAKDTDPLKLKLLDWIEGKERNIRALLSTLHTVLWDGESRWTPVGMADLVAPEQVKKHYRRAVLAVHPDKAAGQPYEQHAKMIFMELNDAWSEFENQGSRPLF", "experiment": "Selectivity interaction (KinomeScan (DiscoverX)) EUB0000607a GAK", "conditions": "at 10 µM"}, "[10]": {"target": "G protein-coupled receptor kinase 6 (Homo sapiens) (UniProt P43250)", "sequence (P43250 whole entry, looked up)": "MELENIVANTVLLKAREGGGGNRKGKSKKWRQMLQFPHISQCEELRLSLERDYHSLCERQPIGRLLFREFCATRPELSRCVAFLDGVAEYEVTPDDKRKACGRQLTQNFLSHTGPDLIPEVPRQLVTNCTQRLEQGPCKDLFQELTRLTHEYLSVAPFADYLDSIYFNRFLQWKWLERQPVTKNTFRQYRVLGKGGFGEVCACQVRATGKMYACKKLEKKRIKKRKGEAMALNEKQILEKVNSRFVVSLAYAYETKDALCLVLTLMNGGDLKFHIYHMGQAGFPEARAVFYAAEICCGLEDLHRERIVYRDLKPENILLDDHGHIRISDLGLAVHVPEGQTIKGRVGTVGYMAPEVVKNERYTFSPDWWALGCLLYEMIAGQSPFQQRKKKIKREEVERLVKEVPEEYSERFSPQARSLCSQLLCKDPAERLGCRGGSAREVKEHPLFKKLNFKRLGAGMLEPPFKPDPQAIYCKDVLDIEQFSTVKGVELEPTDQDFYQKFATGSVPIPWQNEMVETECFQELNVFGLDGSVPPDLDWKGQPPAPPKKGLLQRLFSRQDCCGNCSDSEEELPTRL", "experiment": "Selectivity interaction (Kinase panel (Z-LYTE Assay)) EUB0001632a GRK6", "conditions": "at 10 µM"}},
  "data": [
    {"smiles": "CC[C@@H]1[C@H](F)C(=O)N[C@@H]1COc1nccc2cc(C(N)=O)c(OC)cc12", "note": "[ZIMLOVISERTIB]", "values": [
      {"measurement": "% of inhibition", "setting": "[1]; at 0.01 µM", "result": -9.6, "unit": "%"},
      {"measurement": "% of inhibition", "setting": "[1]; at 0.04 µM", "result": 0.8, "unit": "%"},
      {"measurement": "% of inhibition", "setting": "[1]; at 0.2 µM", "result": -7.6, "unit": "%"},
      {"measurement": "% of inhibition", "setting": "[1]; at 1 µM", "result": 15.7, "unit": "%"},
      {"measurement": "% of inhibition", "setting": "[1]; at 5 µM", "result": 10.9, "unit": "%"},
      {"measurement": "% of inhibition", "setting": "[2]", "result": 64.7, "unit": "%"}
    ]},
    {"smiles": "CN(C)C/C=C/C(=O)Nc1ccc(C(=O)N2CCCC(Nc3ncc(Cl)c(-c4c[nH]c5ccccc45)n3)C2)cc1", "note": "(centres undefined)", "values": [
      {"measurement": "% of control", "setting": "[3]", "result": 90, "unit": "%"}
    ]},
    {"smiles": "O[C@H]1CC[C@H](Nc2ncc3nc(Nc4c(F)cc(F)cc4F)n([C@H]4CCOC4)c3n2)CC1", "values": [
      {"measurement": "% of control", "setting": "[4]", "result": 100, "unit": "%"}
    ]},
    {"smiles": "Cc1cc([C@@H](C)Nc2ccccc2C(=O)O)c2nc(N3CCOCC3)cc(=O)n2c1", "note": "[AZD-6482]", "values": [
      {"measurement": "% of control", "setting": "[5]", "result": 100, "unit": "%"},
      {"measurement": "% of control", "setting": "[6]", "result": 100, "unit": "%"}
    ]},
    {"smiles": "N#Cc1cccc(-c2c[nH]c3ncnc(N4CCOCC4)c23)c1", "values": [
      {"measurement": "% of inhibition", "setting": "[7]", "result": 12, "unit": "%"},
      {"measurement": "% of inhibition", "setting": "[8]", "result": -6, "unit": "%"}
    ]},
    {"smiles": "CNC(=O)Nc1ccc(-c2nc(N3CC4CCC(C3)O4)c3cnn(C4CCC5(CC4)OCCO5)c3n2)cc1", "values": [
      {"measurement": "% of control", "setting": "[9]", "result": 75, "unit": "%"}
    ]},
    {"smiles": "Cn1cc(-n2cnc3c(NCc4nc5cc(Cl)c(Cl)cc5[nH]4)nc(N4CCOCC4)nc32)cn1", "values": [
      {"measurement": "% of control", "setting": "[10]", "result": -1.29, "unit": "%"}
    ]}
  ]
}
